# From ChEMBL document CHEMBL1146978 (Bioorg Med Chem Lett, 2006)
# Key:
# [1] = target: Voltage-dependent calcium channel alpha2delta subunit (Sus scrofa, UniProt O77773); test: Displacement of [3H]gabapentin from alpha-2delta calcium channel in pig brain membrane; type: cell membranes
# Mus musculus = test: Anticonvulsant activity against DBA/2 mouse at 30 mg/kg, po 2 hrs post dose; type: functional
# [2] = Inhibition of [3H]leucine uptake at System L in CHO cells; type: cell-based
# Rattus norvegicus = test: Anxiolytic effect in rat at 30 mg/kg, po by Vogel water lick conflict assay assessed by ability to reverse shock-induced suppression of drinking; type: functional
# Voltage-dependent calcium channel alpha2delta subunit, sequence (O77773 whole entry): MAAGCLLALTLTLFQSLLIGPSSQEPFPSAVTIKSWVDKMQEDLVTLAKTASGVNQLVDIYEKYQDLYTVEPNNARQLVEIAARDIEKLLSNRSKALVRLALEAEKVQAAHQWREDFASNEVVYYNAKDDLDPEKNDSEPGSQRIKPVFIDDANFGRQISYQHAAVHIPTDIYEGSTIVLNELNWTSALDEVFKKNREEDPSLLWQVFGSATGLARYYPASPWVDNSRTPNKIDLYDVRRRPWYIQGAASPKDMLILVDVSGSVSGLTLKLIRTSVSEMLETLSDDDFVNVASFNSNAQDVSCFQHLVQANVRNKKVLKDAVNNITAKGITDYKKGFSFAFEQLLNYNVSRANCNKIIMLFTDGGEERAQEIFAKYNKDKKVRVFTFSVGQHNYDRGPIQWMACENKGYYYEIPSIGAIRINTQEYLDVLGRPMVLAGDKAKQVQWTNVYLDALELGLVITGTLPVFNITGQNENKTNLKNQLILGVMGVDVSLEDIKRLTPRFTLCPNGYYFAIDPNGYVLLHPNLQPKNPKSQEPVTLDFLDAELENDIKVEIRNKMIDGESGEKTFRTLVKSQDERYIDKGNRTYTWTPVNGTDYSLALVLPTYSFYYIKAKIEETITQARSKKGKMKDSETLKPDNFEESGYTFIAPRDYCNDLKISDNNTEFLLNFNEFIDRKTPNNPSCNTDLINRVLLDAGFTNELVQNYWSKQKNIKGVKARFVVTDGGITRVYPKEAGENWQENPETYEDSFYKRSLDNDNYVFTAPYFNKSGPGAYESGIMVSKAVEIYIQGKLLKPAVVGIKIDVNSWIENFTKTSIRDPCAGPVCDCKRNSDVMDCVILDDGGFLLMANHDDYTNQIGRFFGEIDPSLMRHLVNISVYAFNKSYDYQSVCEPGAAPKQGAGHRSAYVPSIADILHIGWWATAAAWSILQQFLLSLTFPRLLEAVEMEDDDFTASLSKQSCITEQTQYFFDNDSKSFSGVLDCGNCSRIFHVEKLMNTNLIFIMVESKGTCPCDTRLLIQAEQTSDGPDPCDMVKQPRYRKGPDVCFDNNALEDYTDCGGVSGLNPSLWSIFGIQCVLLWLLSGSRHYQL
SMILES,IC50 [1],Activity (Mus musculus),IC50 [2],Activity (Rattus norvegicus)
NCC(CC(=O)O)CC1CCOC1 (stereo not given),> 10000 µM,0%,–,–
NCC(CC(=O)O)Cc1ccccc1 (stereo not given),> 10000 µM,0%,–,–
NC[C@H](CC(=O)O)Cc1ccco1,0.178 µM,40%,10000 µM,–
NCC(CC(=O)O)Cc1cccs1 (stereo not given),2.14 µM,40%,2940 µM,10.3%
NC[C@@H](CC(=O)O)Cc1ccco1,1.46 µM,0%,10000 µM,0.28%
NCC(CC(=O)O)Cc1ccoc1 (stereo not given),0.518 µM,0%,1420 µM,-17%
NCC(CC(=O)O)Cc1ccsc1 (stereo not given),0.832 µM,60%,7030 µM,-3%
NCC(CC(=O)O)Cc1ccco1 (stereo not given),0.421 µM,20%,10000 µM,5.3%
CC(C)C[C@H](CN)CC(=O)O [PREGABALIN],–,100%,284 µM,100%
